We go through 15 molecules from ChEMBL document CHEMBL3102756, “Synthesis and biological evaluation of a series of aminoalkyl-tetralones and tetralols as dual dopamine/serotonin ligands” (Eur J Med Chem, 2014).

The target in assay [1] is T1, 5-hydroxytryptamine receptor 2A (Homo sapiens, UniProt P28223). Nature of the assay: Displacement of [3H]ketanserin from human 5-HT2A receptor.
Assay [2] addresses T1, 5-hydroxytryptamine receptor 2A. Nature of the assay: Binding affinity for 5-HT2A receptor (unknown origin).
The target is the same in assay [3]. Particulars: CHO.
Description: Competitive antagonist activity at human 5-HT2A receptor expressed in CHO cells assessed as inhibition of inositol phosphate release after 30 mins by HTRF assay
The target of assay [4] is D(2) dopamine receptor (Homo sapiens) (UniProt P14416). Particulars: CHO.
Chain of D(2) dopamine receptor (Homo sapiens) (P14416 whole entry): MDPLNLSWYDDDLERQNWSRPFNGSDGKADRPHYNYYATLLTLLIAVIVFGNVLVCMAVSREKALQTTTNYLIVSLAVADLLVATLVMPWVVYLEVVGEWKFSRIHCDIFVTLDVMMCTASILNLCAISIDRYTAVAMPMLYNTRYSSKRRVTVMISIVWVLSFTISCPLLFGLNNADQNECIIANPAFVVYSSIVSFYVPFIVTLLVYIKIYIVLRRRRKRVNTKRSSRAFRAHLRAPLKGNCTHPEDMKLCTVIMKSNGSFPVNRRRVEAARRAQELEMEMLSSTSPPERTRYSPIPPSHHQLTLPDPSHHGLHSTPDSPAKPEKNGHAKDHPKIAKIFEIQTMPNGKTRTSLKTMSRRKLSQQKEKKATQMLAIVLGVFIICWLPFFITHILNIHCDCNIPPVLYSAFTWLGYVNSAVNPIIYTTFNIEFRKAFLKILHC
Description: Competitive antagonist activity at human D2 receptor expressed in CHO cells assessed as inhibition of cAMP release after 30 mins by HTRF assay

T1 sequence (P28223 whole entry): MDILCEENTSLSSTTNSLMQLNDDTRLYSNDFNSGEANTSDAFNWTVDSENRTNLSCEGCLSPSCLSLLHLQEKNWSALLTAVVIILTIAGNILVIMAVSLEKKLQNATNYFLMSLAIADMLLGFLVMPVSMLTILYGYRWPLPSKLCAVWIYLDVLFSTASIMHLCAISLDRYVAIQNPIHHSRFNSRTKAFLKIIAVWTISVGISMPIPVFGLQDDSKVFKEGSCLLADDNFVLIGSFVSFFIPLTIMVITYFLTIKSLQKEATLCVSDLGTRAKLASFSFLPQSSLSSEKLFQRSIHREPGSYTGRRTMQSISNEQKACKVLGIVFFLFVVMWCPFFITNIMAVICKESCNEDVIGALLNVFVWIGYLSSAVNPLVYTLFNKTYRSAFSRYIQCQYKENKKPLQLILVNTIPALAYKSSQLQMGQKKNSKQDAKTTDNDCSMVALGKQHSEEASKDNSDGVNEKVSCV

For the molecule `CC(=O)c1ccc2c(c1)CC(CN1CCC(c3noc4cc(F)ccc34)CC1)CC2=O` (stereo unspecified), the affinity in assay [1], expressed as Ki, was 31.6 nM. This counts as double-digit nanomolar.

Consider `COc1ccccc1N1CCN(CCC2CCc3ccc([N+](=O)[O-])cc3C2O)CC1` (stereo unspecified), for which affinity in assay [1] was put at a Ki of 513 nM. This Ki lies about 16-fold higher than the previous one.

In assay [1], `COc1ccccc1N1CCN(CCC2CCc3ccc(N)cc3C2O)CC1` (stereo unspecified) gave an inhibition constant Ki of 158 nM.

In turn, `Nc1ccc2c(c1)C(O)C(CCN1CCC(c3noc4cc(F)ccc34)CC1)CC2` (stereo unspecified) gave a Ki in assay [1] of 6.61 nM.

For the molecule `O=C1CC(CN2CCC(c3noc4cc(F)ccc34)CC2)Cc2ccccc21` (stereo unspecified), the inhibition constant Ki in assay [2] was 2.75 nM.

Molecule `O=C1c2cc([N+](=O)[O-])ccc2CCC1CCN1CCC(c2noc3cc(F)ccc23)CC1` (stereo unspecified) had a Ki in assay [1] of 19.1 nM.

`Nc1ccc2c(c1)C(=O)C(CCN1CCC(c3noc4cc(F)ccc34)CC1)CC2` (stereo unspecified): the affinity in assay [1], expressed as Ki, was 5.01 nM. For the same molecule, the pKb in assay [3] was 8.76; in assay [4], 7.53.

The molecule `O=[N+]([O-])c1ccc2c(c1)C(O)C(CCN1CCC(c3noc4cc(F)ccc34)CC1)CC2` (stereo unspecified) had a Ki in assay [1] of 11 nM.

`CC(=O)c1ccc2c(c1)CC(CN1CCC(C(=O)c3ccc(F)cc3)CC1)CC2=O` (stereo unspecified) showed a Ki in assay [1] of 63.1 nM.

`O=C1CC(CN2CCC(C(=O)c3ccc(F)cc3)CC2)Cc2cc(-c3ccccc3)ccc21` (stereo unspecified) had a Ki in assay [1] of 631 nM.

Take `COc1ccccc1N1CCN(CCC2CCc3ccc(N)cc3C2=O)CC1` (stereo unspecified): the inhibitory constant (Ki) in assay [1] was 42.7 nM.

Take `O=C1CC(CN2CCC(c3noc4cc(F)ccc34)CC2)Cc2cc(-c3ccccc3)ccc21` (stereo unspecified): the inhibition constant (Ki) in assay [1] is 15.8 nM. Also, the negative logarithm of the Kb (pKb) in assay [3] was 7.84; in assay [4] it was 7.55.

As for `Nc1ccc2c(c1)C(=O)C(CCN1CCC(C(=O)c3ccc(F)cc3O)CC1)CC2` (stereo unspecified), the Ki in assay [1] is 23.4 nM.

`Nc1ccc2c(c1)C(O)C(CCN1CCC(C(=O)c3ccc(F)cc3O)CC1)CC2` (stereo unspecified): affinity in assay [1] was put at a Ki of 4.47 nM. Further, the negative logarithm of the Kb (pKb) in assay [3] was determined as 7.82; in assay [4], 6.32.

Turning to `COc1ccccc1N1CCN(CCC2CCc3ccc([N+](=O)[O-])cc3C2=O)CC1` (stereo unspecified), the Ki in assay [1] was 794 nM.

By Ki is commonly meant a dissociation constant, usually derived from enzyme kinetics or from competition with a known ligand. Low values mean tighter binding, high ones weaker binding. One may read the pKb as the negative decadic logarithm of the Kb, by convention in mol/L. Read a high pKb as a low Kb.
